tested on: Brattleboro rat; assay: urine output in Brattleboro rats (model of vasopressin deficiency); type: in vivo; details: 1 mg/kg p.o. in methylcellulose, vs control animals
Procedure: The Brattleboro rat is a recognised model for vasopressin deficiency (for a review see F D Grant, “Genetic models of vasopressin deficiency”, Exp. Physiol. 85, 203S-209S, 2000). […] Compounds of the invention were administered to Brattleboro rats (0.1-10 mg/kg p.o. in methylcellulose. Urine was collected hourly and volumes were compared with control animals. Animals had free access to food and water throughout the experiment. Representative results are given in the Table. Results for Desmopressin are given for comparison.

`CCOC(=O)CNC(=O)NCc1ccc(C(=O)N2CCCCc3ccccc32)cc1C` [Example 5, 1-(4-[N-(2-Ethoxy-2-oxoethylcarbamoyl)aminomethyl]-3-methylbenzoyl)-2,3,4,5-tetrahydro-1H-1-benzazepine] was tested. Which “% inhibition of urine output (at 1 hour)” value did it give?
Its value is 74%.

For `Cc1cc(C(=O)N2CCCCc3ccccc32)ccc1CNC(=O)NCC(=O)O` [Example 6, 1-(4-[N-(Carboxymethylcarbamoyl)aminomethyl]-3-methylbenzoyl)-2,3,4,5-tetrahydro-1H-1-benzazepine], which “% inhibition of urine output (at 1 hour)” value is on record?
The value was 38%.

How did the “% inhibition of urine output (at 1 hour)” value turn out when `Cc1cc(C(=O)N2CCCCc3ccccc32)ccc1CNC(=O)NCC(=O)N(C)C` [Example 8, 1-(4-[N-(2-Dimethylamino-2-oxoethylcarbamoyl)aminomethyl]-3-methylbenzoyl)-2,3,4,5-tetrahydro-1H-1-benzazepine] was run?
Its value is 45-82%.

For `Cc1cc(C(=O)N2CCCCc3ccccc32)ccc1CNC(=O)NCC(=O)N1CCCCC1` [Example 25, 1-(3-methyl-4-[N-(2-(1-piperidino)-2-oxoethylcarbamoyl)aminomethyl]benzoyl)-2,3,4,5-tetrahydro-1H-1-benzazepine], which “% inhibition of urine output (at 1 hour)” value is on record?
Its value is 58%.

From patent US6664249B1, “Bicyclic vasopressin agonists” (Ferring BV, priority 1999, dated 2003)
